Assay results: publication PMC7703437, “In Vitro Hepatic Metabolism of Curcumin Diethyl Disuccinate by Liver S9 from Different Animal Species” (Frontiers in Pharmacology, 2020)
Values joined by “and” are separate entries in the source; they are usually repeats but may differ in a detail not shown here. Equal values may be shown once.

Tests used:
MLS9 = assay: CDD depletion in MLS9 0.02 mg/ml (optimisation of incubation condition); format: in vitro ADME, monkey; conditions: CDD 3 μM
Procedure: (§1) The metabolism profiles of CDD and curcumin formation profile were investigated against HLS9, MLS9, DLS9 and RLS9. A stock solution of CDD was prepared at 150 µM in 50% acetonitrile in water before use. The metabolism study was initiated by spiking a 588 µl pre-incubated LS9 with 12 µl CDD stock solution, and subsequently incubated at 37°C. The final concentrations of CDD and LS9 were 3 µM and 0.02 mg/ml, respectively. A 50 µl aliquot from the mixture was collected at 0.5, 1, 2, 3, 4, 5, 10, 15, 30, 45 and 60 min and was immediately mixed with 100 µl of ice-cold acetonitrile containing 0.45 µM of internal standard DMC to terminate the metabolic reaction. […] Samples of 120 µl of supernatant wee diluted with 40 µl of water prior to UHPLC analysis (Agilent series 1290, Agilent Technology, USA) by means of protocol outlined in Materials and Methods:“In vitro Metabolism Profiling of Curcumin Diethyl Disuccinate”. The sample at 0 min was prepared as other samples except that heat-inactivated HLS9, MLS9, DLS9 and RLS9 (80°C for 20 min; 1 mg/ml protein) were used. Duplicates were conducted for each experiment.
(§2) The peak area ratios of CDD and curcumin to internal standard in the supernatant were determined. The percent contents of CDD and curcumin were plotted against incubation time. The depletion of CDD was calculated with reference to the initial concentration. The saturated substrate was defined as % depletion less than 30.

HLS9 = assay: CDD depletion in HLS9 0.02 mg/ml (optimisation of incubation condition); format: in vitro ADME, human; conditions: CDD 3 μM
Procedure: as §1, §2

[1] = tested on: LS9 from all tested species (HLS9, MLS9, DLS9, RLS9); assay: In vitro metabolism profiling of CDD, statements for LS9 from all tested species; format: in vitro ADME, human, monkey, dog, rat; conditions: within the first 15 min of incubation, LS9 1 mg/ml from all tested species, CDD 3 µM
Procedure: (§3) The metabolism profiles of CDD were investigated against HLS9, MLS9, DLS9, and RLS9. A stock solution of CDD was prepared at 150 µM in 50% acetonitrile in water before use. The metabolism study was initiated by spiking 735 µl of preincubated LS9 with 15 µl of CDD stock solution, and the mixture was subsequently incubated at 37°C. The final concentrations of CDD and LS9 were 3 μM and 1 mg/ml, respectively. A 50-µl aliquot from the mixture was collected at 0.5, 1, 2, 3, 4, 5, 10, 15, 30, 45, 60, 90, and 120 min and immediately mixed with 100 µl of ice-cold acetonitrile containing 0.45 µM of internal standard DMC to terminate the metabolic reaction. […] The sample at the initial time point (0 min) was prepared as the other samples, except that heat-inactivated HLS9, MLS9, DLS9, and RLS9 (80°C for 20 min; 1 mg/ml protein) were used.
(§4) The UHPLC system consisted of an Agilent series 1290 quaternary pump with an online degasser, autosampler, column oven, and diode array detector. The mobile phase was composed of (A) 0.1% (v/v) formic acid in acetonitrile and (B) 0.1% (v/v) formic acid in water. Each solution was filtered through a nylon filter (pore size, 0.22 µm; MS® Membrane Filters; Membrane Solutions, United States) before use. The mobile phase flow rate was kept at 1.2 ml/min in a gradient mode using the following elution program: 0–3.0 min, initial A-B (40:60, v/v); 4.5–7.0 min, isocratic elution A-B [50:50, (v/v); 8.5–11.0 min, isocratic elution A-B (60:40, v/v); and 12.0–17.0 min, isocratic elution A-B (40:60, v/v)]. CDD, curcumin, and MSCUR in the supernatant were partitioned using a C8 column (4.6 mm × 50 mm, 2.7 µm; HALO, Advanced Materials Technology, United States) with reference to DMC. The detection wavelength was set at 400 nm (λ max(CDD) = 400 nm, λ max(curcumin) = 427 nm, λ max(MSCUR) = 418 nm, and λ max(DMC) = 421 nm). The column was maintained at 35°C throughout the run, and the supernatant injection volume was set at 20 µl.
(§5) The concentrations of CDD, curcumin, and MSCUR in the supernatant were determined from the standard plots, which were prepared by spiking individual working solutions of the compounds to heat-inactivated HLS9, MLS9, DLS9, and RLS9 ([Alcorn et al., 2007]; [Montoro-Garcia et al., 2009]; [Singh et al., 2010]). […]
(§6) The following equations were adopted to describe the changes in CDD and MSCUR content over time (t): A = A0e^−k1t (2) B= k1A0/k2−k1(e^−k1t−e^−k2t), (3) where A0 is the CDD concentration at time 0, k 1 is the degradation rate constant of CDD, and k 2 is the degradation rate constant of MSCUR. k 1 and k 2 were determined by using Eqs. […] The half-life (t 1/2) was calculated using Eq. 4: t1/2=0.693/k (4)

[2] = as above; format: in vitro ADME, human, monkey, dog, rat; conditions: beagle (dog); Sprague-Dawley (rat), human, monkey, dog, rat, liver S9 (LS9); all LS9s; read-out: t 1/2 of CDD
Procedure: as §3, §4, §5, §6

[3] = design: method as in Muangnoi et al., 2019b; conditions: ref Muangnoi et al., 2019b; cited from earlier work

% CDD remaining (MLS9; 0.5 min): 75.32%
%Depletion of CDD (MLS9; 0.5 min (selected incubation time)): 25% and 24.68%
% CDD remaining (MLS9; 1 min): 63.90%
%Depletion of CDD (MLS9; 1 min): 36.10%
% CDD remaining (MLS9; 2 min): 49.34%
%Depletion of CDD (MLS9; 2 min): 50.66%
% CDD remaining (MLS9; 3 min): 37.51%
%Depletion of CDD (MLS9; 3 min): 62.49%
% CDD remaining (MLS9; 4 min): 28.36%
%Depletion of CDD (MLS9; 4 min): 71.64%
% CDD remaining (MLS9; 5 min): 21.92%
%Depletion of CDD (MLS9; 5 min): 78.08%
% CDD remaining (HLS9; 0.5 min): 82.88%
%Depletion of CDD (HLS9; 0.5 min): 17.12%
% CDD remaining (HLS9; 1 min): 80.95%
%Depletion of CDD (HLS9; 1 min (selected incubation time)): 19% and 19.05%
% CDD remaining (HLS9; 2 min): 68.18%
%Depletion of CDD (HLS9; 2 min): 31.82%
% CDD remaining (HLS9; 3 min): 57.46%
%Depletion of CDD (HLS9; 3 min): 42.54%
% CDD remaining (HLS9; 4 min): 43.15%
%Depletion of CDD (HLS9; 4 min): 56.85%
% CDD remaining (HLS9; 5 min): 36.37%
%Depletion of CDD (HLS9; 5 min): 63.63%
CDD hydrolyzed [1]: more than 95%
half-life at 3 µM [2]: < 1.04 min
SMILES: CCOC(=O)CCC(=O)Oc1ccc(/C=C/C(=O)/C=C(O)/C=C/c2ccc(OC(=O)CCC(=O)OCC)c(OC)c2)cc1OC [CDD, curcumin diethyl disuccinate]
log P [3]: 2.55
